Measured values reported in patent US20130224300A1, “COMPOSITIONS AND METHODS THEREOF FOR ORAL ADMINISTRATION OF DRUGS” (priority 2011, published 2013).

Experiment: Sumatriptan pharmacokinetics after oral gavage in cocoa butter with or without DDM
Assay type: in vivo, beagle dogs
Conditions: 25 mg in cocoa butter with 1% DDM vs no-DDM control, dog, 0-180 min
Method: The plot depicts serum concentrations of sumatriptan in a canine at zero through 180 min. following oral delivery (by gavage) of 25 mg sumatriptan in 1.0% DDM in a non-aqueous solution comprising cocoa butter. The solid circles represent plasma sumatriptan concentrations for doses not containing DDM (the control) and the solid squares show plasma sumatriptan concentrations for the sumatriptan doses containing DDM.
Sumatriptan, 2.5 g, was dissolved in 100 mL of cocoa butter at 45 deg. […] (in the liquid state) resulting in a solution having a sumatriptan concentration of 25 mg/mL. The solution was divided into two equal 50 mL portions. To one was added 500 mg DDM. Both solutions were kept at 45 degrees C. until the DDM is seen to have completely dissolved upon visual inspection yielding a 1% DDM solution in cocoa butter. The solutions were then cooled to about 4-10 degrees C. to allow the cocoa butter to solidify. One mL portions of the solidified cocoa butter-sumatriptan-DDM solution and one mL portions of the cocoa butter-sumatriptan (no DDM) control were formed into spherical balls and administered to beagle dogs by oral gavage. Blood samples were collected at timed intervals and plasma sumatriptan concentrations measured using a standard clinical assay.

- increase in oral absorption based upon the relative AUC's: ~19%
Structure (SMILES): CNS(=O)(=O)Cc1ccc2[nH]cc(CCN(C)C)c2c1 [sumatriptan]
